Tests used:
CV-1 [1] = experiment: Antiviral efficacy measured by a hybrid HIV-l/vaccinia virus infected monkey cell line (HIV- l/vVK-1 infected CV- 1) which produces HIV-1 gag-pol derived polyproteins; assay type: functional, cell-based, Human immunodeficiency virus 1; details: Chlorocebus aethiops
CV-1 [2] = experiment: Antiviral efficacy measured by a hybrid HIV-l/vaccinia virus infected monkey cell line (HIV- l/vVK-1 infected CV- 1) which produces HIV-1 gag-pol derived polyproteins at 10 uM concentration; assay type: functional, Human immunodeficiency virus 1; details: Chlorocebus aethiops
[3] = target: Human immunodeficiency virus type 1 protease (Human immunodeficiency virus 1, UniProt Q72874); experiment: Evaluated for inhibitory activity against HIV-1 protease
Cathepsin E = target: T1, Cathepsin E (Homo sapiens, UniProt P14091); experiment: Compound was evaluated for aspartyl protease inhibition selectivity relative to Cathepsin E
T1 sequence (P14091 whole entry): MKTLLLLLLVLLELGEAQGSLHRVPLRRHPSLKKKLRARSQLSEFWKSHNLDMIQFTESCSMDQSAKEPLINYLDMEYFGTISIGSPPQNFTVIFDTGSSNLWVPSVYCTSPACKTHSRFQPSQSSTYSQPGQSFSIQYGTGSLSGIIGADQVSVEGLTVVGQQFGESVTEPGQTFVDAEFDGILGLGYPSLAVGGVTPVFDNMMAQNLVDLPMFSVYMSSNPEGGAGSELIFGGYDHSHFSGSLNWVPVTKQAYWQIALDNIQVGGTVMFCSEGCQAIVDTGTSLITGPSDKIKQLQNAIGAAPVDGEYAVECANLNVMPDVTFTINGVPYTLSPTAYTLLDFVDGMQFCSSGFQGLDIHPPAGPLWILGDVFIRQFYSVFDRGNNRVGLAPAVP

Cathepsin D = Cathepsin D (Homo sapiens, UniProt P07339); experiment: Compound was evaluated for aspartyl protease inhibition selectivity relative to Cathepsin D
Sequence of Cathepsin D (P07339 65-162 limits assumed): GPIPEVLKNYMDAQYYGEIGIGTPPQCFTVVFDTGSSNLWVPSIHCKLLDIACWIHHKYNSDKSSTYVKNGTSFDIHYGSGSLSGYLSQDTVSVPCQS
Sequence of Cathepsin D (P07339 169-412 limits assumed): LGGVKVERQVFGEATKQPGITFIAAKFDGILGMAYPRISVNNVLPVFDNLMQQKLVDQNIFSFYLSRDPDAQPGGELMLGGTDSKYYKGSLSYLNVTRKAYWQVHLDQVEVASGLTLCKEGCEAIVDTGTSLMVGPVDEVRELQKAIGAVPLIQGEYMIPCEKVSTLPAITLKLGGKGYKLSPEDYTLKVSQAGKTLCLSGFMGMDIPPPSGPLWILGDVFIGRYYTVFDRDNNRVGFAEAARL

Pepsin A = Pepsin A (Sus scrofa, UniProt P00791); experiment: Compound was evaluated for aspartyl protease inhibition selectivity relative to pepsin; design: species or system Homo sapiens
Sequence of Pepsin A (P00791 whole entry): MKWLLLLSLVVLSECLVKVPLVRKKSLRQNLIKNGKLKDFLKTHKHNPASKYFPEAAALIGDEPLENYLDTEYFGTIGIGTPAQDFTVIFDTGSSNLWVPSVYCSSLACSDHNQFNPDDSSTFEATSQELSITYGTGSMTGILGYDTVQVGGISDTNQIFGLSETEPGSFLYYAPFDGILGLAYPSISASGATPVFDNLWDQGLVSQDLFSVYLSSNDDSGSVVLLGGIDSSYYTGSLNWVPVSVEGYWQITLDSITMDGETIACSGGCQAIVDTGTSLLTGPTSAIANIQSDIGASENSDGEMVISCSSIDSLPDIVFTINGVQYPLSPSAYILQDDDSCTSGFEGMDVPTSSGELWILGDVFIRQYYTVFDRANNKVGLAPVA

Renin = target: T2, Renin (Homo sapiens, UniProt P00797); experiment: Compound was evaluated for aspartyl protease inhibition selectivity relative to renin
T2 sequence (P00797 whole entry): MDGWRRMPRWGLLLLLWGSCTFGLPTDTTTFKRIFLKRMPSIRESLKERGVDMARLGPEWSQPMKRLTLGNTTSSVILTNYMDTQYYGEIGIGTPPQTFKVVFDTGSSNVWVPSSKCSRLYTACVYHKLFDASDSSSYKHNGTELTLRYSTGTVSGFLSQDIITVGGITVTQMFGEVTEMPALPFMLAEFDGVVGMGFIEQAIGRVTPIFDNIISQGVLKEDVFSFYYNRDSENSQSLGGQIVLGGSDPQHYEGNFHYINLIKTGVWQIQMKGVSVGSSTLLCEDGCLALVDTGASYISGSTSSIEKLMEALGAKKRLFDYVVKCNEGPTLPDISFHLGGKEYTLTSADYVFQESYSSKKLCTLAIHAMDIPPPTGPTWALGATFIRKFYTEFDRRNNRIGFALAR

`CCC(C)[C@H](NC(=O)[C@@H](C[C@H](O)[C@H](CC1CCCCC1)NC(=O)[C@H](Cc1cn(C)cn1)NC(=O)COc1cccc2ccccc12)C(C)C)C(=O)NCc1ccccn1` (some centres undefined) was tested, and the IC50 (CV-1 [1]) was 500 nM, the inhibition at 10 µM (CV-1 [2]) was 85% and the Ki [3] was 30 nM.
With `CCC(C)[C@H](NC(=O)[C@@H](C[C@H](O)[C@H](CC1CCCCC1)NC(=O)[C@H](Cc1c[nH]cn1)NC(=O)COc1cccc2ccccc12)C(C)C)C(=O)NCc1ccccn1` (some centres undefined) the IC50 (CV-1 [1]) was 300 nM, the inhibition at 10 µM (CV-1 [2]) was 100% and the Ki (Cathepsin E) was 50 nM. It also gave a Ki (Cathepsin D) of 200 nM, a Ki (Pepsin A) of 290 nM and a Ki (Renin) of 2 nM. It also gave a Ki [3] of 5 nM.
Work on `CC[C@H](C)[C@H](NC(=O)[C@@H](C[C@H](O)[C@H](CC1CCCCC1)NC(C)=O)C(C)C)C(=O)NCc1cccc[n+]1[O-]` yielded an inhibition at 10 µM (CV-1 [2]) of 20% and a Ki [3] of 16 nM.
For `CCC(C)[C@H](NC(=O)[C@@H](C[C@H](O)[C@H](CC1CCCCC1)NC(=O)OC(C)(C)C)C(C)C)C(=O)NCc1ccccn1` (some centres undefined), the IC50 (CV-1 [1]) was 300 nM, the inhibition at 10 µM (CV-1 [2]) was 100% and the Ki (Cathepsin E) was 90 nM. It also gave a Ki (Cathepsin D) of 100 nM, a Ki (Pepsin A) of 330 nM and a Ki (Renin) of 1200 nM. For the same compound, the Ki [3] was 8 nM.
In the case of `CCC(C)[C@H](NC(=O)[C@@H](C[C@H](O)[C@H](CC1CCCCC1)NC(=O)[C@H](Cc1cnc[nH]1)NC(=O)OC(C)(C)C)C(C)C)C(=O)NCc1ccccn1` (some centres undefined), the IC50 (CV-1 [1]) is reported as 10000 nM, the inhibition at 10 µM (CV-1 [2]) is reported as 53% and the Ki [3] is reported as 10 nM.
`CCC(C)[C@H](NC(=O)[C@@H](C[C@H](O)[C@H](CC1CCCCC1)NC(=O)[C@@H](NC(=O)COc1cccc2ccccc12)C(C)C)C(C)C)C(=O)NCc1ccccn1` (some centres undefined) gave an IC50 (CV-1 [1]) of 300 nM, an inhibition at 10 µM (CV-1 [2]) of 93% and a Ki [3] of 61 nM.
`CCC(C)[C@H](NC(=O)[C@@H](C[C@H](O)[C@H](CC1CCCCC1)NC(=O)[C@H](CC(N)=O)NC(=O)c1ccc2ccccc2n1)C(C)C)C(=O)NCc1ccccn1` (some centres undefined) showed an IC50 (CV-1 [1]) of 300 nM, an inhibition at 10 µM (CV-1 [2]) of 97% and a Ki (Cathepsin E) of 3 nM. For the same compound, the Ki (Cathepsin D) was 2 nM, the Ki (Pepsin A) was 12 nM and the Ki (Renin) was 212 nM. It also gave a Ki [3] of 9 nM.
For `CCC(C)[C@H](NC(=O)[C@@H](C[C@H](O)[C@H](CC1CCCCC1)NC(=O)[C@H](CC(N)=O)NC(=O)COc1cccc2ccccc12)C(C)C)C(=O)NCc1ccccn1` (some centres undefined), the IC50 (CV-1 [1]) was 300 nM, the inhibition at 10 µM (CV-1 [2]) was 93% and the Ki [3] was 4 nM.
`CCC(C)[C@H](NC(=O)[C@@H](C[C@H](O)[C@H](CC1CCCCC1)NC(=O)COc1ccccc1)C(C)C)C(=O)NCc1ccccn1` (some centres undefined) showed an IC50 (CV-1 [1]) of 3000 nM, an inhibition at 10 µM (CV-1 [2]) of 90% and a Ki [3] of 61 nM.
`CC[C@@H](C)[C@@H](NC(=O)[C@@H](C[C@H](O)[C@H](CC1CCCCC1)NC(C)=O)C(C)C)C(=O)NCc1ccccn1` gave an inhibition at 10 µM (CV-1 [2]) of 22% and a Ki [3] greater than 1000 nM.
Work on `CCCCCC(=O)N[C@@H](CC1CCCCC1)[C@@H](O)C[C@H](C(=O)N[C@H](C(=O)NCc1ccccn1)C(C)CC)C(C)C` (some centres undefined) yielded an IC50 (CV-1 [1]) of 3000 nM, an inhibition at 10 µM (CV-1 [2]) of 67% and a Ki [3] of 47 nM.
Compound `CC[C@H](C)[C@H](NC(=O)[C@@H](C[C@H](O)[C@H](CC1CCCCC1)NC(C)=O)C(C)C)C(=O)NCc1ccccn1` has an inhibition at 10 µM (CV-1 [2]) of 50% and a Ki [3] of 8 nM.
Compound `CC[C@H](C)[C@H](NC(=O)[C@H](C(C)C)[C@@H](O)[C@H](O)[C@H](CC1CCCCC1)NC(=O)[C@H](Cc1c[nH]cn1)NC(=O)COc1cccc2ccccc12)C(=O)NCc1ccccn1` has an IC50 (CV-1 [1]) of 200 nM, an inhibition at 10 µM (CV-1 [2]) of 100% and a Ki (Cathepsin E) of 142 nM. For the same compound, the Ki (Cathepsin D) was greater than 1000 nM, the Ki (Pepsin A) was 265 nM and the Ki (Renin) was 2 nM. It also gave a Ki [3] of less than 1 nM.
For `CCC(C)[C@H](NC(=O)[C@@H](C[C@H](O)[C@H](CC1CCCCC1)NC(=O)CC(C)(C)C)C(C)C)C(=O)NCc1ccccn1` (some centres undefined), the IC50 (CV-1 [1]) was 3000 nM, the inhibition at 10 µM (CV-1 [2]) was 75% and the Ki [3] was 75 nM.
Work on `CCC(C)[C@H](NC(=O)[C@@H](C[C@H](O)[C@H](CC1CCCCC1)NC(=O)[C@H](CC(N)=O)NC(=O)c1ccc2ccccc2n1)C(C)C)C(=O)O` (some centres undefined) yielded an inhibition at 10 µM (CV-1 [2]) of 0%.
`CC[C@H](C)[C@H](NC(=O)[C@@H](C[C@H](O)[C@@H](N)CC1CCCCC1)C(C)C)C(=O)NCc1ccccn1` was tested, and the inhibition at 10 µM (CV-1 [2]) was 0% and the Ki [3] was 800 nM.
`CC(C)[C@H](C[C@H](O)[C@H](CC1CCCCC1)NC(=O)C(CC(N)=O)NC(=O)c1ccc2ccccc2n1)C(=O)NCC(C)(C)C` (some centres undefined) showed an IC50 (CV-1 [1]) of 300 nM, an inhibition at 10 µM (CV-1 [2]) of 70% and a Ki [3] of 14 nM.
Compound `CCC(C)[C@H](NC(=O)[C@@H](C[C@H](O)[C@H](CC1CCCCC1)NC(=O)c1ccccn1)C(C)C)C(=O)NCc1ccccn1` (some centres undefined) has an IC50 (CV-1 [1]) of 300 nM, an inhibition at 10 µM (CV-1 [2]) of 100% and a Ki [3] of 8 nM.

Reference: ChEMBL document CHEMBL1127224, “Peptidomimetic inhibitors of human immunodeficiency virus protease (HIV-PR): Design, enzyme binding and selectivity, antiviral efficacy, and cell permeability properties” (Bioorg Med Chem Lett, 1993)
